Assay: Carrier dissolution capacity (admixing controlled amounts of active agent)
Type: physicochemical
Experimental: The dissolution capacity of different carriers was tested by admixing controlled amounts of active agent.

[1] = carrier Lipoid S100 0.0 / Urea 2.0 / Ethanol 98.0 % w/w
[2] = carrier Lipoid S100 5.0 / Urea 2.0 / Ethanol 93.0 % w/w
[3] = carrier Lipoid S100 10.0 / Urea 2.0 / Ethanol 88.0 % w/w
[4] = carrier Lipoid S100 20.0 / Urea 2.0 / Ethanol 78.0 % w/w
[5] = carrier Lipoid S100 30.0 / Urea 2.0 / Ethanol 68.0 % w/w

| Compound | Highest complete dissolution [1] [% w/w] | Lowest incomplete dissolution [1] [% w/w] | Lowest incomplete dissolution (carrier Lipoid S100 5.0 / Urea 1.0 / Ethanol 94.0 % w/w) [% w/w] | Highest complete dissolution [2] [% w/w] | Lowest incomplete dissolution [2] [% w/w] | Highest complete dissolution [3] [% w/w] | Lowest incomplete dissolution [3] [% w/w] | Highest complete dissolution [4] [% w/w] | Lowest incomplete dissolution [4] [% w/w] | Highest complete dissolution [5] [% w/w] | Lowest incomplete dissolution [5] [% w/w] | Highest complete dissolution (carrier Lipoid S100 49.5 / Urea 1.0 / Ethanol 49.5 % w/w) [% w/w] | Highest complete dissolution (carrier Lipoid S100 3.4 / Urea 2.0 / Ethanol 94.7 % w/w) [% w/w] |
| --- | --- | --- | --- | --- | --- | --- | --- | --- | --- | --- | --- | --- | --- |
| C[C@]12CCC(=O)C=C1CC[C@@H]1[C@@H]2[C@@H](O)C[C@@]2(C)[C@H]1CC[C@]2(O)C(=O)CO [Hydrocortisone] | 2.09 | 2.25 | 2.28 | 2.22 | 2.37 | 2.48 | 2.83 | 2.82 | 3.22 | 3.19 | 3.50 | 2.89 | – |
| Calcium pantothenate | 0.27 | 0.40 | – | 0.50 | – | 0.98 | – | 1.81 | – | 3.17 | – | – | 0.41 |

— patent US20240307294A1, “Topical Composition and Carrier for Administration of Pharmaceutically or Cosmetically Active Ingredients” (EMOLLIVET AB, priority 2013, published 2024)
